This passage reports IC50 results from US8729082B2, “Substituted imidazoquinoxalines” (Bayer Intellectual Property GmbH, priority 2009, dated 2014).

Broadly, the IC50 is the concentration needed to halve the response being measured.

This experiment concerns the target T1, human kinase Mps-1 (Homo sapiens, UniProt P33981).
T1 construct: N-terminally GST-tagged human full length recombinant Mps-1 kinase; purchased Invitrogen, Karslruhe, Germany PV4071
T1 sequence (P33981 1-857): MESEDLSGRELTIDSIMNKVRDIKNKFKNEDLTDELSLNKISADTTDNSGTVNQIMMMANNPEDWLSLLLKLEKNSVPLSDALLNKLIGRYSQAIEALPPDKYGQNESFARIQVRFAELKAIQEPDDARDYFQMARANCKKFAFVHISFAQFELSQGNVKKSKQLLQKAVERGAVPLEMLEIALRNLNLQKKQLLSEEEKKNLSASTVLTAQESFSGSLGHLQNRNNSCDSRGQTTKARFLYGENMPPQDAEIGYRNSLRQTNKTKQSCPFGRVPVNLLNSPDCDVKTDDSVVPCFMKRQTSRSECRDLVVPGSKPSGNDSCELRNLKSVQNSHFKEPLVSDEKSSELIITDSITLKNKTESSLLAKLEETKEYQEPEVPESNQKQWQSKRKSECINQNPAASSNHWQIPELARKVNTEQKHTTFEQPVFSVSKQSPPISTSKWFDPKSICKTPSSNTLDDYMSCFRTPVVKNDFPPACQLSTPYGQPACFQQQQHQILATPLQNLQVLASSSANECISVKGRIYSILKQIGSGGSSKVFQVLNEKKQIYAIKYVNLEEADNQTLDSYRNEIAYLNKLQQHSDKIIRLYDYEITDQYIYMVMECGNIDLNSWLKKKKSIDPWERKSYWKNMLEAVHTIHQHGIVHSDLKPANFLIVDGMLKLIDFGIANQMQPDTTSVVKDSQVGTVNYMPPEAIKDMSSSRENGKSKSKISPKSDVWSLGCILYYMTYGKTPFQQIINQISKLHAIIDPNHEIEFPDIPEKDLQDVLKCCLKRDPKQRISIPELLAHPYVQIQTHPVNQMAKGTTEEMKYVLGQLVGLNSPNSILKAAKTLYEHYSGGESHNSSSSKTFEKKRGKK
Kind of experiment: Mps-1 kinase assay (HTRF). The format is biochemical. The settings on record: lowATP; mean; read-out: Mps1 lowATP mean IC50. The protocol: The human kinase Mps-1 phosphorylates a biotinylated substrate peptide. Detection of the phosphorylated product is achieved by homogenous time-resolved fluorescence resonance energy transfer (HTRF) from Europium-labelled anti-phospho-Serine/Threonine antibody as donor to streptavidin labelled with cross-linked allophycocyanin (SA-XLent) as acceptor. Compounds are tested for their inhibition of the kinase activity.
N-terminally GST-tagged human full length recombinant Mps-1 kinase (purchased from Invitrogen, Karslruhe, Germany, cat. no PV4071) was used. As substrate for the kinase reaction a biotinylated peptide of the amino-acid sequence PWDPDDADITEILG (C-terminus in amide form, purchased from Biosynthan GmbH, Berlin) was used.
For the assay 50 nl of a 100-fold concentrated solution of the test compound in DMSO was pipetted into a black low volume 384 well microtiter plate (Greiner Bio-One, Frickenhausen, Germany), 2 μl of a solution of Mps-1 in assay buffer [0.1 mM sodium-ortho-vanadate, 10 mM MgCl2, 2 mM DTT, 25 mM Hepes pH 7.7, 0.05% BSA, 0.001% Pluronic F-127] were added and the mixture was incubated for 15 min at 22° C. to allow pre-binding of the test compounds to Mps-1 before the start of the kinase reaction. Then the kinase reaction was started by the addition of 3 μl of a solution of 16.7 μM ATP and 1.67 μM peptide in assay buffer and the resulting mixture was incubated for a reaction time of 60 min at 22° C. The concentration of Mps-1 in the assay was adjusted to the activity of the enzyme lot and was chosen appropriate to have the assay in the linear range, typical enzyme concentrations were in the range of about 1 nM (final conc. in the 5 μl assay volume). The reaction was stopped by the addition of 3 μl of a solution of HTRF detection reagents (100 mM Hepes pH 7.4, 0.1% BSA, 40 mM EDTA, 140 nM Streptavidin-XLent [#61GSTXLB, Fa. Cis Biointernational, Marcoule, France], 1.5 nM anti-phospho(Ser/Thr)-Europium-antibody [#AD0180, PerkinElmer LAS, Rodgau-Jügesheim, Germany].
The resulting mixture was incubated 1 h at 22° C. to allow the binding of the phosphorylated peptide to the anti-phospho(Ser/Thr)-Europium-antibody. Subsequently the amount of phosphorylated substrate was evaluated by measurement of the resonance energy transfer from the Europium-labelled anti-phospho(Ser/Thr) antibody to the Streptavidin-XLent. Therefore, the fluorescence emissions at 620 nm and 665 nm after excitation at 350 nm was measured in a HTRF reader, e.g. a Rubystar (BMG Labtechnologies, Offenburg, Germany) or a Viewlux (PerkinElmer LAS, Rodgau-Jügesheim, Germany). The ratio of the emissions at 665 nm and at […] was taken as the measure for the amount of phosphorylated substrate. The data were normalised (enzyme reaction without inhibitor=0% inhibition, all other assay components but no enzyme=100% inhibition).
(In general: TR-FRET usually uses a lanthanide donor and a delayed reading to cut background.)
Regarding `CNC(=O)Nc1ccc(-c2cnc3c(NCCCOC)nc4ccc(F)cc4n23)cc1` [Example 2-71, 1-(4-{8-fluoro-4-[(3-methoxypropyl)amino]imidazo[1,2-a]quinoxalin-1-yl}phenyl)-3-methylurea], the 50% inhibitory concentration (IC50) stood at 4950 nM.

As to `CNC(=O)Nc1ccc(-c2cnc3c(NCC(C)C)nc4cc(C)c(C)cc4n23)cc1` [Example 2-173, 1-(4-{7,8-dimethyl-4-[(2-methylpropyl)amino]imidazo[1,2-a]quinoxalin-1-yl}phenyl)-3-methylurea], the concentration for half-maximal inhibition (IC50) was found to be 209 nM.

`Cc1cccc(CNc2nc3ccccc3n3c(-c4ccc(C(=O)NC5CC5)cc4)cnc23)c1` [Example 2-4, N-cyclopropyl-4-{4-[(3-methylbenzyl)amino]imidazo[1,2-a]quinoxalin-1-yl}benzamide]: the 50% inhibitory concentration (IC50) was 132 nM.

As to `CNC(=O)Nc1ccc(-c2cnc3c(NCCC(C)C)nc4cc(C#N)ccc4n23)cc1` [Example 2-224, 1-(4-{7-cyano-4-[(3-methylbutyl)amino]imidazo[1,2-a]quinoxalin-1-yl}phenyl)-3-methylurea], the half-maximal inhibitory concentration (IC50) was determined as 3290 nM.

For the molecule `CC(C)CNc1nc2ccccc2n2c(-c3ccc4[nH]ccc4c3)cnc12` [Example 1-39, 1-(1H-indol-5-yl)-N-(2-methylpropyl)imidazo[1,2-a]quinoxalin-4-amine], the IC50 came to 8860 nM.

As to `NS(=O)(=O)CCNc1nc2cc(F)c(F)cc2n2c(-c3ccc(C(=O)NC4CC4)c(Cl)c3)cnc12` [Example 2-143, 2-chloro-N-cyclopropyl-4-{7,8-difluoro-4-[(2-sulfamoylethyl)amino]imidazo[1,2-a]quinoxalin-1-yl}benzamide], the 50% inhibitory concentration (IC50) came out at 1240 nM.

Turning to `CC(C)CNc1nc2ccccc2n2c(-c3ccc(C(=O)NC4(c5ccccn5)CC4)cc3)cnc12` [Example 3-25, 4-{4-[(2-methylpropyl)amino]imidazo[1,2-a]quinoxalin-1-yl}-N-[1-(pyridin-2-yl)cyclopropyl]benzamide], the IC50 amounted to 1420 nM.

Take `CC(C)CNc1nc2ccccc2n2c(-c3ccc(C(=O)Nc4ccc(CN5CCN(C)CC5)c(C(F)(F)F)c4)cc3)cnc12` [Example 3-31, N-{4-[(4-methylpiperazin-1-yl)methyl]-3-(trifluoromethyl)phenyl}-4-{4-[(2-methylpropyl)amino]imidazo[1,2-a]quinoxalin-1-yl}benzamide]: the half-inhibitory concentration (IC50) was found to be 4570 nM.

Take `CCNc1nc2cc(F)c(F)cc2n2c(-c3ccc(C(=O)NC4CC4)cc3)cnc12` [Example 2-99, N-cyclopropyl-4-[4-(ethylamino)-7,8-difluoroimidazo[1,2-a]quinoxalin-1-yl]benzamide]: the IC50 was 59.8 nM.

For the molecule `Cc1ccc(-c2cnc3c(NCC(C)C)nc4ccccc4n23)s1` [Example 1-38, N-(2-methylpropyl)-1-(5-methylthiophen-2-yl)imidazo[1,2-a]quinoxalin-4-amine], the IC50 was determined as 6050 nM.

With `COCCNc1nc2cc(F)c(F)cc2n2c(-c3ccc(C(=O)NC4CC4)c(Cl)c3)cnc12` [Example 2-126, 2-chloro-N-cyclopropyl-4-{7,8-difluoro-4-[(2-methoxyethyl)amino]imidazo[1,2-a]quinoxalin-1-yl}benzamide], the IC50 amounted to 4890 nM.

Turning to `CC(C)CNc1nc2ccccc2n2c(-c3ccc(C(=O)Nc4ccccc4C(N)=O)cc3)cnc12` [Example 3-11, N-(2-carbamoylphenyl)-4-{4-[(2-methylpropyl)amino]imidazo[1,2-a]quinoxalin-1-yl}benzamide], the IC50 was found to be 19400 nM.

On to `CCCCNc1nc2cc(C#N)ccc2n2c(-c3ccc(C(=O)NC4CC4)c(Cl)c3)cnc12` [Example 2-243, 4-[4-(butylamino)-7-cyanoimidazo[1,2-a]quinoxalin-1-yl]-2-chloro-N-cyclopropylbenzamide], for which the half-inhibitory concentration (IC50) came to 506 nM.

For the molecule `Cc1cc2nc(NCCCN3CCOCC3)c3ncc(-c4ccc(C(=O)NC5CC5)c(Cl)c4)n3c2cc1C` [Example 2-180, 2-chloro-N-cyclopropyl-4-(7,8-dimethyl-4-{[3-(morpholin-4-yl)propyl]amino}imidazo[1,2-a]quinoxalin-1-yl)benzamide], the 50% inhibitory concentration (IC50) amounted to 473 nM.

With `O=C(NC1CC1)c1ccc(-c2cnc3c(NCCO)nc4ccccc4n23)cc1` [Example 2-1, N-cyclopropyl-4-[4-(2-hydroxy-ethylamino)-imidazo[1,2-a]quinoxalin-1-yl]-benzamide], the half-maximal inhibitory concentration (IC50) is 113 nM.

On to `CCNc1nc2ccc(F)cc2n2c(-c3ccc(C(=O)NC4CC4)cc3)cnc12` [Example 2-49, N-cyclopropyl-4-[4-(ethylamino)-8-fluoroimidazo[1,2-a]quinoxalin-1-yl]benzamide], for which the concentration for half-maximal inhibition (IC50) was determined as 87.6 nM.

For the molecule `COc1ccc(-c2cnc3c(NCC(C)C)nc4ccccc4n23)c(C)c1` [Example 1-30, 1-(4-methoxy-2-methylphenyl)-N-(2-methylpropyl)imidazo[1,2-a]quinoxalin-4-amine], the IC50 was 15300 nM.

Turning to `Cn1cc(CNc2nc3ccc(F)cc3n3c(-c4ccc(C(=O)NC5CC5)cc4)cnc23)cn1` [Example 2-58, N-cyclopropyl-4-(8-fluoro-4-{[(1-methyl-1H-pyrazol-4-yl)methyl]amino}imidazo[1,2-a]quinoxalin-1-yl)benzamide], the IC50 worked out at 105 nM.

Take `CNC(=O)Nc1ccc(-c2cnc3c(NCCC(N)=O)nc4cc(C)c(C)cc4n23)cc1` [Example 2-174, N^3-(7,8-dimethyl-1-{4-[(methylcarbamoyl)amino]phenyl}imidazo[1,2-a]quinoxalin-4-yl)-beta-alaninamide]: the IC50 stood at 782 nM.

In the case of `Cc1cc2nc(NCc3ccnn3C)c3ncc(-c4ccc(C(=O)NC5CC5)c(Cl)c4)n3c2cc1C` [Example 2-199, 2-chloro-N-cyclopropyl-4-(7,8-dimethyl-4-{[(1-methyl-1H-pyrazol-5-yl)methyl]amino}imidazo[1,2-a]quinoxalin-1-yl)benzamide], the IC50 amounted to 25.9 nM.

In the case of `N#Cc1ccc2c(c1)nc(NCCCN1CCCC1=O)c1ncc(-c3ccc(C(=O)NC4CC4)cc3)n12` [Example 2-207, 4-(7-cyano-4-{[3-(2-oxopyrrolidin-1-yl)propyl]amino}imidazo[1,2-a]quinoxalin-1-yl)-N-cyclopropylbenzamide], the half-maximal inhibitory concentration (IC50) amounted to 195 nM.

Take `CC(C)CNc1nc2ccccc2n2c(-c3ccccc3)cnc12` [Example 1-6, N-(2-methylpropyl)-1-phenylimidazo[1,2-a]quinoxalin-4-amine]: the half-maximal inhibitory concentration (IC50) worked out at 8180 nM.

Turning to `CCNC(=O)Nc1ccc(-c2cnc3c(NCC(C)C)nc4ccccc4n23)cc1` [Example 1-3, 1-ethyl-3-[4-(4-isobutylamino-imidazo[1,2-a]quinoxalin-1-yl)-phenyl]-urea], the IC50 turned out to be 20000 nM.

For the molecule `N#Cc1ccc2c(c1)nc(NCc1ccccc1F)c1ncc(-c3ccc(C(=O)NC4CC4)c(Cl)c3)n12` [Example 2-238, 2-chloro-4-{7-cyano-4-[(2-fluorobenzyl)amino]imidazo[1,2-a]quinoxalin-1-yl}-N-cyclopropylbenzamide], the half-inhibitory concentration (IC50) worked out at 613 nM.
